{"source": "patent US20090054414A1", "about": "“Rufinamide for the Treatment of Post-Traumatic Stress Disorder” (SYNOSIA THERAPEUTICS, priority 2007, published 2009)", "key": {"Male OF1/IC mice": {"test_system": "Male OF1/IC mice", "assay": "modified stress-induced hyperthermia (SIH) test", "assay_type": "in vivo, mouse", "protocol": "Rufinamide was tested in the modified stress-induced model of anxiety. The stress-induced hyperthermia test in mice is a paradigm developed several years ago to model the expression of autonomic hyperactivity in anxiety (Lecci A, Borsini F, Volterra G, Meli A. (1990) Pharmacological validation of a novel model of anticipatory anxiety in mice. Psychopharmacology; 101:255-61.; Spooren W P, Schoeffter P, Gasparini F, Kuhn R, Gentsch C. (2002) Pharmacological and endocrinological characterisation of stress-induced hyperthermia in singly housed mice using classical and candidate anxiolytics (LY314582, MPEP and NKP608). Eur J Pharmacol; 435:161-70.;Zethof T J J, van der Heyden J A M, Tolboom J B M, Olivier B (1994) Stress-induced hyperthermia in mice: a methodological study. Phys. Behav. 55:109-115.). […] Pharmacol Biochem Behav 72:179-188.\nMale OF1/IC mice (MA205 Tiger code) were obtained several days prior to behavioural testing from Iffa Credo (L'Arbresle, France; 18-20 g) and housed in groups of 15 animals per cage (macrolon cages 42H26H15 cm, Type 4). The animals were individually housed (macrolon cage: 26H21H14 cm, Type 2) 24 h before testing. The day preceding the experiment, all cages were transferred to the testing room—and background noise (radio) was used during the light cycle. Both the animal room and the laboratory were temperature controlled and equipped with artificial illumination (L12:D12; lights on 06:00). Mice always had ad libitum access to water and food (Ecosan, Eberle Nafag A G, Gossau, Schweiz).\nThe test procedure for the modified stress-induced hyperthermia was adapted from van der Heyden et al. (1997). Rectal temperature was measured in each mouse twice, i.e. at t=0 min (T1) and t=+15 min (T2). The difference in temperature (T2-T1) was considered to reflect the stress-induced hyperthermia (SIH). […] In addition, a comparison between T1 in vehicle-treated mice and in animals treated with a given dose of a test-compound was used, to measure whether a test-compound affected body temperature alone.\nRectal temperature was measured to the nearest 0.1° C. by an ELLAB instruments (Copenhagen, Denmark) thermometer Model DM 852 by inserting a lubricated thermistor probe model PRA-22002-A (ELLAB, Copenhagen, Denmark) (2.2 mm diameter) 20 mm into the rectum; the mouse was hand held at the base of the tail during this determination and the thermistor probe was left in place for 15 s.\nAll drugs were made up fresh and dissolved in vehicle (0.5% methylcellulose) and administered per os (p.o.) in a volume of 10 ml/kg.\nAll data was analysed using a one-way analysis of variance (ANOVA) followed where appropriate by Dunnett test of multiple comparisons. The level of significance was set at p<0.05."}, "[1]": {"test_system": "Male Rj: Wistar (Han) rats", "assay": "Vogel Conflict Test in the rat", "assay_type": "in vivo", "conditions": "for number of shocks received (punished drinking), change vs vehicle control: 60 minutes before the test", "protocol": "Rufinamide was dispersed in 0.5% methylcellulose (MC) in distilled water. Vehicle was dispersed in 0.5% MC in distilled water. Clobazam was dispersed in 0.5% MC in distilled water. Methylcellulose (Sigma), batch n° 62K0144, white powder. Distilled water (Laboratoire Aguettant, sterile water for injectable preparation). All substances were stored in a dry, dark, controlled access area and maintained at a controlled ambient temperature (+18° C.). The vehicle suspensions were stored at +4° C.\nThe vehicle, test substance and reference substance were administered in a volume of 5 ml/kg body weight.\nMale Rj: Wistar (Han) rats, 171-205 g body weight range were used. They were supplied by Elevage Janvier, 53940 Le Genest-Saint-Isle, France.\nAnimals were delivered to the laboratory at least 5 days before the experiment, during which time they were acclimatized to the laboratory conditions. They were housed in groups of 5 in macrolon cages (41×25×14 cm) on wood litter (Litalabo—SPPS, 95100 Argenteuil, France) with free access to food (Code 113-SAFE, 91360 Epinay-sur-Orge, France) and water until\nResults in grouped data tables are presented as means followed by a ± sign and the standard error of the mean (s.e.m.) on the basis of 15 animals per group and as percent change from control. The statistical tests used are indicated with the method. All statistical calculations were performed using commercial software (Microsoft Excel®, GB Stat version 6.5), and verified test by test according to Porsolt & Partners Pharmacology's standardized internal procedures. All differences were considered statistically significant when the null hypothesis could be rejected at the risk α=0.05 or less.\nRats were deprived of water for 48 hours and were then placed individually into a transparent Plexiglas enclosure (15×32×34 cm) with a floor consisting of stainless steel bars (0.4 cm) spaced 1 cm apart. The back wall of the enclosure was made of opaque Plexiglass thereby concealing the observer from the experimental animal. In the centre of the opposite wall, 5 cm above the floor, a metal water spout protruded into the cage and was connected to one pole of a shock generator (Apelex: Type 011346). The other pole of the shock generator was connected to the metal grid floor.\nThe rat was left to explore until it found the water spout. Then, every time it drank, it received a slight electric shock (1.7 mA, 1 sec.) 2 seconds after it started lapping. The number of shocks received (punished drinkings) was counted during a 3 minute period.\n15 rats were studied per group. The test was performed blind.\nrufinamide was evaluated at 25, 50, 100 and 200 mg/kg, administered p.o. 60 minutes before the test, and compared with a vehicle control group.\nClobazam (64 mg/kg), administered under the same experimental conditions, was used as reference substance.\nData were analyzed by comparing treated groups with vehicle control using unpaired Student's t tests."}}, "data": [{"smiles": "NC(=O)c1cn(Cc2c(F)cccc2F)nn1", "note": "[rufinamide, 1-(2,6-difluorobenzyl)-1H-1,2,3-triazole-4-carboxamide]", "values": [{"measurement": "body temperature T2 (15 min after stress)", "setting": "Male OF1/IC mice; first experiment, rufinamide 100 mg/kg p.o., p<0.001", "value": "significant lower body temperature than control animals"}, {"measurement": "SIH response (T2-T1)", "setting": "Male OF1/IC mice; first experiment, rufinamide 3, 10, 30, 100 mg/kg p.o., 60 min before T1, n=12", "value": "only the positive control CDZ (10 mg/kg, p.o.) reversed significantly"}, {"measurement": "dose eliciting a robust reversal of the physiological response to an acute stressor", "setting": "Male OF1/IC mice; p.o.", "value": "> 30", "unit": "mg/kg"}, {"measurement": "doses needed to induce robust anxiolytic-like effects in the SIH paradigm", "setting": "Male OF1/IC mice; p.o.", "value": "100 to 300", "unit": "mg/kg"}, {"measurement": "SIH response (T2-T1)", "setting": "Male OF1/IC mice; pooled data of all 3 experiments, rufinamide 30, 50, 100, 200 and 300 mg/kg p.o.", "value": "significantly attenuated"}, {"measurement": "body temperature T2 (15 min after stress)", "setting": "Male OF1/IC mice; pooled data, rufinamide 25, 50, 100, 200 and 300 mg/kg", "value": "significant lower body temperature than control animals"}, {"measurement": "SIH response (T2-T1)", "setting": "Male OF1/IC mice; second experiment (0.3, 3, 30, 300 mg/kg tested), rufinamide 0.3, 30 and 300 mg/kg p.o. (p<0.05, p<0.01, p<0.001)", "value": "significantly attenuated"}, {"measurement": "body temperature T2 (15 min after stress)", "setting": "Male OF1/IC mice; second experiment, rufinamide at the highest doses (30 and 100 mg/kg, p.o.)", "value": "significant lower body temperature than control animals"}, {"measurement": "SIH response (T2-T1)", "setting": "Male OF1/IC mice; third experiment (25, 50, 100, 200 mg/kg tested), rufinamide 50 (p<0.05), 100 and 200 mg/kg p.o. (p<0.001)", "value": "significantly reduced"}, {"measurement": "body temperature T2 (15 min after stress)", "setting": "Male OF1/IC mice; third experiment, rufinamide 100 and 200 mg/kg p.o.", "value": "significant lower body temperature than control animals"}, {"measurement": "number of shocks received (punished drinking), change vs vehicle control", "setting": "[1]; 25 mg/kg p.o., 3 minute period, 15 rats", "value": "+31%"}, {"measurement": "number of shocks received (punished drinking), change vs vehicle control", "setting": "[1]; 50 mg/kg p.o., p<0.05", "value": "+40%"}, {"measurement": "number of shocks received (punished drinking), change vs vehicle control", "setting": "[1]; 100 mg/kg p.o.", "value": "+55%"}, {"measurement": "number of shocks received (punished drinking), change vs vehicle control", "setting": "[1]; 200 mg/kg p.o.", "value": "+83%"}, {"measurement": "dose-range of anxiolytic-like activity", "setting": "[1]; p.o.", "value": "25 to 200", "unit": "mg/kg"}, {"measurement": "dose from which the increase in shocks received is significant", "setting": "[1]; p.o., p<0.05", "value": "≥ 50", "unit": "mg/kg"}]}]}
